In the NIST ThermoML archive (doi:10.1016/j.jct.2004.12.014):

Tests used:
[1] = excess molar enthalpy (molar enthalpy of mixing); xn = mol fraction of the nth substance listed; conditions: 318.15 K, 101 kPa, Liquid
[2] = xn = mol fraction of the nth substance listed; conditions: 318.15 K, 101 kPa, Liquid

CCCCCOC(=O)CC [pentyl propanoate] + CCCCCCCCC
Conditions	excess molar enthalpy [kcal/mol]	excess molar volume [m3/mol]
[1], x1 = 0.0584	0.0448	–
[1], x1 = 0.1266	0.0882	–
[1], x1 = 0.1948	0.124	–
[1], x1 = 0.2641	0.151	–
[1], x1 = 0.329	0.168	–
[1], x1 = 0.3907	0.178	–
[1], x1 = 0.4467	0.183	–
[1], x1 = 0.4973	0.184	–
[1], x1 = 0.5431	0.181	–
[1], x1 = 0.576	0.176	–
[1], x1 = 0.5969	0.173	–
[1], x1 = 0.6505	0.161	–
[1], x1 = 0.7085	0.145	–
[1], x1 = 0.7683	0.124	–
[1], x1 = 0.8297	0.0982	–
[1], x1 = 0.8907	0.067	–
[1], x1 = 0.9492	0.0339	–
[2], x1 = 0.0661	–	1.34e-07
[2], x1 = 0.1312	–	2.47e-07
[2], x1 = 0.1902	–	3.19e-07
[2], x1 = 0.2517	–	3.88e-07
[2], x1 = 0.3122	–	4.31e-07
[2], x1 = 0.3722	–	4.6e-07
[2], x1 = 0.4344	–	4.77e-07
[2], x1 = 0.4911	–	4.73e-07
[2], x1 = 0.5498	–	4.62e-07
[2], x1 = 0.6072	–	4.37e-07
[2], x1 = 0.6646	–	3.9e-07
[2], x1 = 0.7225	–	3.49e-07
[2], x1 = 0.778	–	2.91e-07
[2], x1 = 0.8335	–	2.41e-07
[2], x1 = 0.8887	–	1.69e-07
[2], x1 = 0.9434	–	1.01e-07

CCCCCOC(=O)CC [pentyl propanoate] + CCCCCCCCCCC
Conditions	excess molar enthalpy [kcal/mol]	excess molar volume [m3/mol]
[1], x1 = 0.0724	0.0592	–
[1], x1 = 0.153	0.109	–
[1], x1 = 0.229	0.148	–
[1], x1 = 0.3051	0.179	–
[1], x1 = 0.3748	0.197	–
[1], x1 = 0.4452	0.206	–
[1], x1 = 0.5015	0.206	–
[1], x1 = 0.5466	0.201	–
[1], x1 = 0.556	0.2	–
[1], x1 = 0.6046	0.192	–
[1], x1 = 0.6573	0.179	–
[1], x1 = 0.7137	0.161	–
[1], x1 = 0.7726	0.14	–
[1], x1 = 0.8314	0.112	–
[1], x1 = 0.8897	0.0786	–
[1], x1 = 0.9449	0.0436	–
[2], x1 = 0.079	–	1.89e-07
[2], x1 = 0.1498	–	3.48e-07
[2], x1 = 0.2179	–	4.36e-07
[2], x1 = 0.2836	–	5.2e-07
[2], x1 = 0.3484	–	5.69e-07
[2], x1 = 0.4116	–	6.03e-07
[2], x1 = 0.4733	–	6.14e-07
[2], x1 = 0.5329	–	6.13e-07
[2], x1 = 0.5902	–	5.99e-07
[2], x1 = 0.6462	–	5.83e-07
[2], x1 = 0.7023	–	5.24e-07
[2], x1 = 0.7545	–	4.67e-07
[2], x1 = 0.8065	–	3.79e-07
[2], x1 = 0.8561	–	3.1e-07
[2], x1 = 0.9045	–	2.2e-07
[2], x1 = 0.9538	–	1.21e-07

CCCCCOC(=O)CC [pentyl propanoate] + CCCCCCCCCCCCC
Conditions	excess molar enthalpy [kcal/mol]	excess molar volume [m3/mol]
[1], x1 = 0.0691	0.0578	–
[1], x1 = 0.1382	0.105	–
[1], x1 = 0.2136	0.151	–
[1], x1 = 0.2861	0.185	–
[1], x1 = 0.3564	0.209	–
[1], x1 = 0.4222	0.224	–
[1], x1 = 0.4822	0.229	–
[1], x1 = 0.5355	0.228	–
[1], x1 = 0.578	0.222	–
[1], x1 = 0.5956	0.219	–
[1], x1 = 0.6423	0.207	–
[1], x1 = 0.6875	0.193	–
[1], x1 = 0.7398	0.171	–
[1], x1 = 0.7927	0.148	–
[1], x1 = 0.8474	0.118	–
[1], x1 = 0.9008	0.0823	–
[1], x1 = 0.9546	0.0415	–
[2], x1 = 0.0877	–	2.09e-07
[2], x1 = 0.1642	–	3.71e-07
[2], x1 = 0.2425	–	5.1e-07
[2], x1 = 0.3196	–	6.05e-07
[2], x1 = 0.3804	–	6.65e-07
[2], x1 = 0.4461	–	6.93e-07
[2], x1 = 0.5107	–	7.04e-07
[2], x1 = 0.5701	–	6.95e-07
[2], x1 = 0.6258	–	6.64e-07
[2], x1 = 0.6801	–	6.16e-07
[2], x1 = 0.7305	–	5.62e-07
[2], x1 = 0.7814	–	4.99e-07
[2], x1 = 0.8272	–	4.41e-07
[2], x1 = 0.8719	–	3.34e-07
[2], x1 = 0.9166	–	2.64e-07
[2], x1 = 0.9578	–	1.29e-07

CCCCCOC(=O)CC [pentyl propanoate] + CCCCCCCCCCCCCCC
Conditions	excess molar enthalpy [kcal/mol]	excess molar volume [m3/mol]
[1], x1 = 0.0757	0.0662	–
[1], x1 = 0.1563	0.124	–
[1], x1 = 0.2383	0.174	–
[1], x1 = 0.3152	0.212	–
[1], x1 = 0.3915	0.238	–
[1], x1 = 0.4596	0.251	–
[1], x1 = 0.52	0.254	–
[1], x1 = 0.5607	0.251	–
[1], x1 = 0.5843	0.246	–
[1], x1 = 0.6262	0.236	–
[1], x1 = 0.6747	0.22	–
[1], x1 = 0.7264	0.2	–
[1], x1 = 0.7806	0.174	–
[1], x1 = 0.8352	0.141	–
[1], x1 = 0.892	0.0996	–
[1], x1 = 0.9477	0.0535	–
[2], x1 = 0.0451	–	1.37e-07
[2], x1 = 0.1011	–	2.83e-07
[2], x1 = 0.1866	–	4.41e-07
[2], x1 = 0.2665	–	5.63e-07
[2], x1 = 0.341	–	6.68e-07
[2], x1 = 0.4128	–	7.28e-07
[2], x1 = 0.478	–	7.64e-07
[2], x1 = 0.5422	–	7.75e-07
[2], x1 = 0.5989	–	7.59e-07
[2], x1 = 0.6522	–	7.35e-07
[2], x1 = 0.7029	–	6.74e-07
[2], x1 = 0.7542	–	6.2e-07
[2], x1 = 0.7997	–	5.33e-07
[2], x1 = 0.8438	–	4.51e-07
[2], x1 = 0.8845	–	3.62e-07
[2], x1 = 0.924	–	2.42e-07
[2], x1 = 0.9627	–	1.57e-07
